Measurements published in US20060121126A1, “Environmentally friendly pesticide and method of use” (priority 2004, published 2006).

Tested on: Culex pipiens and Aedes Egypti late 3rd instar larvae
Assay: Mosquito larvae mortality in cups of tap water
Type: in vivo
Conditions: 20 larvae in 150 mL tap water
Procedure: A series of control experiments are conducted to study the effect of aqueous hydrogen peroxide and saponin extract on mosquito larvae, individually, and in combination. In a series of 30 experiments, 20 Culex pipiens and Aedes Egypti in the late 3rd instar larvae are placed in a cup containing 150 mL of tap water. In separate experiments, the larvae are exposed to varying concentrations of hydrogen peroxide saponin extract. The mortality is recorded over a 5-day period.

`OO` [hydrogen peroxide] was tested, and the “concentration needed to achieve 50% larvae mortality in 24 hrs” value was > 100 ppm.
